Data: patent US20220039395A1, “INSECT CONTROL AGENTS” (priority 2018, published 2022)
“Also recorded” adds a separate entry of the source. Square brackets hold non-standard residues; d marks the D form. Aib = CC(C)(N)C(=O)O

Assays:
Myzus persicae [1] = test: Desiccation/starvation tolerance assay after peptide microinjection; type: in vivo; settings: Myzus persicae, microinjection; for Documented effect on desiccation/starvation mortality: final concentration ×10^−5 M, relative to vehicle control; for LTime50 (h), test / Median ± IQR survival (h), test: ×10^−5 M, desiccation and starvation stress, test group
Procedure: (§1) Neuropeptides were administered to test aphids via microinjection to allow for rapid mass screening of neuropeptide analogue efficacy. For this, native neuropeptides were diluted in double distilled water (DDH2O) to a concentration of 1×10^−5 M. Neuropeptide analogues were diluted in DDH2O to the following concentrations: kinin analogues 1728 (2.5×10^−5 M), 2139 (3.5×10^−5 M), 2139-Ac (3.5×10^−5 M); CAP2b analogues 1895 (3.5×10^−5 M), 1896 (3.5×10^−5 M), 1902 (3.5×10^−5 M), 2089 (3.9×10^−5 M), 2123 (1.0×10^−5 M), 2125 (1.0×10^−5 M), 2129 (2.0×10^−5 M). Once at the desired concentration, neuropeptide solutions were administered to test aphids at an injection volume of 9 nl based on total haemolymph volume, to produce an approximate 1:20 dilution of injection volume to haemolymph. Injections were performed using a pulled glass needle and a Nanoject II Auto-Nanoliter Injector (Drummond Scientific Company, Broomall, Pa.). A vehicle control was set up for each treatment/day of experiments to account for variation in needle pulling. For this, control aphids were injected with 9 nl of DDH2O and subsequently exposed to the same experiments as aphids receiving the neuropeptide treatment. Neuropeptide treated and vehicle control aphids were subsequently used in the stress bioassays detailed below.
(§2) Anholocyclic adults of mixed age of either M. persicae or M. rosae were selected from the stock cultures and treated with a native neuropeptide or neuropeptide analogue via microinjection using the method detailed above. Treated and vehicle control aphids were allowed to recover on excised leaves of the host plant for 1 h before being placed in an empty ventilated microcage (L=4 cm, 0=9.5 cm) at densities of 10 per cage. In total, 30-40 aphids were treated for each neuropeptide treatment group and a further 30-40 for the associated vehicle control group. From the point of placement in the microcage (taken as 0 h), aphid survival was checked every hour during daylight hours and approximately every 4 h during night-time hours until the final aphid died. Survival data were subsequently analysed using a Log-rank (Mantel-Cox) text in GraphPad Prism version 7.0. LTime50 (the time taken to kill 50% of the test population) values were calculated via Probit Analysis in Minitab 17 (Minitab Inc., State College, Pa.).

Macrosiphum rosae = test: as above; type: in vivo; settings: Macrosiphum rosae, microinjection; for Documented effect on desiccation/starvation mortality: final concentration ×10^−5 M, relative to vehicle control; for LTime50 (h), test / Median IQR survival (h), test: ×10^−5 M, desiccation and starvation stress, test group
Procedure: as §1, §2

Myzus persicae [2] = test: Cold tolerance bioassay at the discriminating temperature after microinjection; type: in vivo; settings: M. persicae, 1 h at −9.7° C., survival assessed after 48 h, vs control
Procedure: Neuropeptides were administered to test aphids via microinjection to allow for rapid mass screening of neuropeptide analogue efficacy. For this, native neuropeptides were diluted in double distilled water (DDH2O) to a concentration of 1×10^−5 M. Neuropeptide analogues were diluted in DDH2O to the following concentrations: kinin analogues 1728 (2.5×10^−5 M), 2139 (3.5×10^−5 M), 2139-Ac (3.5×10^−5 M); CAP2b analogues 1895 (3.5×10^−5 M), 1896 (3.5×10^−5 M), 1902 (3.5×10^−5 M), 2089 (3.9×10^−5 M), 2123 (1.0×10^−5 M), 2125 (1.0×10^−5 M), 2129 (2.0×10^−5 M). […]
For this reason, and given its global pest status, only M. persicae was taken forward in cold stress assays. […] Following exposure, aphids were allowed to recover at the culture temperature in microcages containing excised leaves of the host plant and survival was assessed after 48 h. […]
Survival data were analysed using Probit analysis in MINITAB, version 17 (Minitab Inc., State College, Pa.) and the LT30 (the lethal temperature resulting in 30% mortality of a test population) was elucidated.
Pre-reproductive anholocyclic adult aphids of M. persicae were treated with neuropeptide analogues using the microinjection method detailed above. […] Following exposure, adults were allowed to recover at the culture temperature in microcages containing excised leaves of the host plant and survival was assessed after 48 h. […]

M. persicae = test: Topical application under desiccation/starvation conditions; type: in vivo, Myzus persicae; settings: data not shown
Procedure: For peptides 2315, 2320 and 2125, peptides were diluted individually in an Armid FMPC formulation (AkzoNobel Surface Chemistry, Stenungsund, Sweden) to concentration of 1×10^−5 M. Using a Nanoject II Auto-Nanoliter micro-injector, 9 nl of the peptide solution was applied topically to the abdomen of a pre-reproductive adult aphid, coating the cuticle in the solution. Aphids were returned to the host plant and allowed to recover for 24 h before use in experiments. Control aphids were topically applied with 9 nl of the Armid FMPC formulation and, once again, allowed to recover for 24 h on the host plant before use in experiments.
as §2, with “In total, 30-40 aphids were treated for each neuropeptide treatment group and a further 30-40 for the associated vehicle control group. From the point of placement in the microcage (taken as 0 h), aphid survival was checked every hour during daylight hours and approximately every 4 h during night-time hours until the final aphid died.” left out

Substance	Documented effect on desiccation/starvation mortality (Myzus persicae [1])	LTime50 (h), test (Myzus persicae [1])	Median ± IQR survival (h), test (Myzus persicae [1])	Documented effect on desiccation/starvation mortality (Macrosiphum rosae)	LTime50 (h), test (Macrosiphum rosae)	Median IQR survival (h), test (Macrosiphum rosae)	Effect on survival/mortality under cold stress (Myzus persicae [2])	effect on mortality (M. persicae)
Ac-FF[Aib]WG-NH2 [2139-AC, reference compound]	No effect	19.4 | 16.7 h	22.5 ± 19.8 | 20.0 ± 14.0 h	No effect	44.0 | 40.1 h	39.0 ± 37.0 | 35.0 ± 32.0 h	acting to increase survival relative to the control	
2Abf-Suc-FT[Oic]RV-NH2 [compound 2125]	non-significant survival curves; also recorded: No effect	10.8 | 13.0 h	11.0 ± 12.0 | 11.0 ± 12.0 h	non-significant survival curves; also recorded: No effect	21.6 | 20.1 h	24.0 ± 9.25 | 20.5 ± 18.0 h		significantly increased mortality
